These results are taken from paper PMC6071225 (Viruses, 2018).

Assay [1] has as its system H275Y NA2009. In kind it is binding, A/California/07/2009 (H1N1) influenza virus.
In assay [2] the target is H275Y NA2009. In kind it is biochemical, A/California/07/2009 (H1N1) influenza virus.
In assay [3] the test system is S247N NA2009. In kind it is biochemical, A/California/07/2009 (H1N1) influenza virus.
In the next assay the test system is H275Y/I223V NA2009. The assay is classed as biochemical, A/California/07/2009 (H1N1) influenza virus.
For assay [4], the system named is H275Y/I223V 2009 pandemic H1N1 virus. As to conditions: cited from earlier work.
The subject of assay [5] is S247N NA2009. The assay is classed as binding, A/California/07/2009 (H1N1) influenza virus.
The subject of assay [6] is H275Y/S247N 2009 pandemic H1N1 virus. To be noted: cited from earlier work.
Assay [7] has as its system NA with H275Y mutation, strain A/WSN/1933 (H1N1). As to conditions: cited from earlier work.
Assay [8] concerns I223V NA2009. In kind it is binding, A/California/07/2009 (H1N1) influenza virus.
The target of assay [9] is I223V NA2009. In kind it is biochemical, A/California/07/2009 (H1N1) influenza virus.
The subject of another assay is H275Y/S247N NA2009. In kind it is biochemical, A/California/07/2009 (H1N1) influenza virus.

SMILES strings stand for the structures.

With `CCC(CC)O[C@@H]1C=C(C(=O)O)C[C@H](N)[C@H]1NC(C)=O` [oseltamivir carboxylate], in the assay with H275Y NA2009 [1], the “enthalpy change less favorable than the wt value” turned out to be 8.7 kcal/mol and the “more favorable entropic contribution (referenced to the wt value)” value turned out to be 6 kcal/mol. For the same compound, at H275Y NA2009 [1] (pH 6.15), the Kd came to 13.2 µM, the ΔG was -6.7 ± 0.03 kcal/mol, the ΔH was -2.1 ± 0.04 kcal/mol and the “−T·ΔS” value is -4.6 ± 0.1 kcal/mol. In addition, the inhibitory constant (Ki) on H275Y NA2009 [2] was found to be 27 µM. Moreover, in the assay on S247N NA2009 [3], the “Fold Ki” value was 19 fold and the Ki was determined as 0.45 ± 0.04 µM. Further, in the assay with H275Y/I223V NA2009, the “Fold Ki” value worked out at 3900 fold, the Ki stood at 94 µM and the “increase in Ki compared to H275Y NA2009” value was “more than three-fold”. Further, the “enhanced oseltamivir-resistant phenotype compared to the recombinant wt virus” value in [4] is 1733 fold. In addition, in the assay on S247N NA2009 [5], the “entropic contribution of binding compared to wt” value is listed as “almost unaffected” and the “less favorable enthalpy change compared to wt” value stood at 0.4 kcal/mol. Moreover, at S247N NA2009 [5] (pH 6.15), the Kd was found to be 0.41 ± 0.02 µM, the ΔG was -8.7 ± 0.03 kcal/mol, the ΔH is -10.4 ± 0.1 kcal/mol and the “−T·ΔS” value was 1.7 ± 0.1 kcal/mol. In assay [6], the “enhanced oseltamivir-resistant phenotype compared to the recombinant wt virus” value is on record as 7000 fold. In assay [7], the “reduction in susceptibility conferred by His to Tyr mutation at position 275” value is on record as 750 fold. Further, in the assay on I223V NA2009 [8], the “less favorable enthalpy change compared to wt” value amounted to 1.4 kcal/mol and the “more favorable entropic contribution compared to wt” value was found to be 0.6 kcal/mol. At I223V NA2009 [8] (pH 6.15), binding was characterised by a dissociation constant (Kd) of 0.52 ± 0.03 µM, the ΔG was -8.6 ± 0.1 kcal/mol, the ΔH was -9.4 ± 0.1 kcal/mol and the “−T·ΔS” value stood at 0.9 ± 0.2 kcal/mol. For the same compound, affinity at I223V NA2009 [9] was put at a Ki of 0.7 ± 0.1 µM. For the same compound, in the assay with H275Y/S247N NA2009, the “Fold Ki” value was 9000 fold, the Ki turned out to be 220 µM, the “increase in Ki compared to the H275Y single mutant” value was determined as 8 fold and the “increase in Ki compared to the S247N single mutant” value was 500 fold.
For the compound `CCC(CC)[C@H](NC(C)=O)[C@@H]1[C@H](O)[C@@H](C(=O)O)C[C@H]1N=C(N)N` [peramivir], in assay [7], the “reduction in susceptibility conferred by His to Tyr mutation at position 275” value was 260 fold.

As a reminder, the Kd is the constant that tells how readily two partners part at equilibrium. Lower therefore signals tighter binding. What is called Ki is a dissociation constant, usually derived from enzyme kinetics or from competition with a known ligand.
